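Method: 48-hour compound exposure of cells in 96-well plates, five concentrations, linear interpolation of endpoints. The concentration for 50% growth inhibition is given as GI50.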 Active and inactive are the calls of the source. Cut-off read from the data, not from the text of the source: active = GI50 up to about 1.1 µM and inactive = higher.
Assays:
Test in all cases: inhibition of tumour cell growth, NCI panel, 48 h
[1] = system: 786-0
[2] = system: A498
[3] = system: A549
[4] = system: ACHN
[5] = system: CAKI-1
[6] = system: CCRF-CEM
[7] = system: COLO 205
[8] = system: DLD-1
[9] = system: DMS-114
[10] = system: DMS-273
[11] = system: EKVX
[12] = system: HCC 2998
[13] = system: HCT-116
[14] = system: HCT-15
[15] = system: HL-60
[16] = system: HOP-18
[17] = system: HOP-62
[18] = system: HOP-92
[19] = system: HT-29
[20] = system: IGROV-1
[21] = system: K562
[22] = system: KM-20L2
[23] = system: KM12
[24] = system: LOX IMVI
[25] = system: LXFL 529
[26] = system: M14
[27] = system: M19-MEL
[28] = system: MOLT-4
[29] = system: Malme-3M
[30] = system: NCI-H226
[31] = system: NCI-H23
[32] = system: NCI-H460
[33] = system: NCI-H522
[34] = system: OVCAR-3
[35] = system: OVCAR-4
[36] = system: OVCAR-5
[37] = system: OVCAR-8
[38] = system: RPMI-8226
[39] = system: RXF 393
[40] = system: RXF 631
[41] = system: SF-268
[42] = system: SF-295
[43] = system: SF-539
[44] = system: SK-MEL-2
[45] = system: SK-MEL-5
[46] = system: SK-OV-3
[47] = system: SN12C
[48] = system: SNB-19
[49] = system: SNB-75
[50] = system: SNB-78
[51] = system: SR
[52] = system: SW-620
[53] = system: TK-10
[54] = system: U-251
[55] = system: UACC-257
[56] = system: UACC-62
[57] = system: UO-31
[58] = system: XF498
[59] = system: SK-MEL-28

C[Si](C)(C)/N=C1\N2C(=NC1(C(F)(F)F)C(F)(F)F)Sc1ccccc12
GI50 [1]: > 50 µM (inactive) | GI50 [2]: > 50 µM (inactive) | GI50 [3]: > 50 µM (inactive) | GI50 [4]: > 50 µM (inactive) | GI50 [5]: > 50 µM (inactive) | GI50 [6]: > 50 µM (inactive) | GI50 [7]: > 50 µM (inactive) | GI50 [8]: > 50 µM (inactive) | GI50 [9]: > 50 µM (inactive) | GI50 [10]: > 50 µM (inactive) | GI50 [11]: > 50 µM (inactive) | GI50 [12]: > 50 µM (inactive) | GI50 [13]: > 50 µM (inactive) | GI50 [14]: > 50 µM | GI50 [15]: > 50 µM (inactive) | GI50 [16]: > 50 µM (inactive) | GI50 [17]: > 50 µM (inactive) | GI50 [18]: 29.9 µM (inactive) | GI50 [19]: > 50 µM (inactive) | GI50 [20]: > 50 µM (inactive) | GI50 [21]: > 50 µM (inactive) | GI50 [22]: > 50 µM (inactive) | GI50 [23]: > 50 µM (inactive) | GI50 [24]: > 50 µM (inactive) | GI50 [25]: > 50 µM (inactive) | GI50 [26]: > 50 µM (inactive) | GI50 [27]: > 50 µM (inactive) | GI50 [28]: > 50 µM (inactive) | GI50 [29]: > 50 µM (inactive) | GI50 [30]: > 50 µM (inactive) | GI50 [31]: > 50 µM (inactive) | GI50 [32]: > 50 µM (inactive) | GI50 [33]: > 50 µM (inactive) | GI50 [34]: > 50 µM (inactive) | GI50 [35]: > 50 µM (inactive) | GI50 [36]: > 50 µM (inactive) | GI50 [37]: > 50 µM (inactive) | GI50 [38]: > 50 µM (inactive) | GI50 [39]: > 50 µM (inactive) | GI50 [40]: > 50 µM (inactive) | GI50 [41]: > 50 µM (inactive) | GI50 [42]: > 50 µM (inactive) | GI50 [43]: > 50 µM (inactive) | GI50 [44]: > 50 µM (inactive) | GI50 [45]: > 50 µM (inactive) | GI50 [46]: > 50 µM (inactive) | GI50 [47]: > 50 µM (inactive) | GI50 [48]: > 50 µM (inactive) | GI50 [49]: > 50 µM (inactive) | GI50 [50]: > 50 µM (inactive) | GI50 [51]: > 50 µM (inactive) | GI50 [52]: > 50 µM (inactive) | GI50 [53]: > 50 µM (inactive) | GI50 [54]: > 50 µM (inactive) | GI50 [55]: > 50 µM (inactive) | GI50 [56]: > 50 µM (inactive) | GI50 [57]: > 50 µM (inactive) | GI50 [58]: > 50 µM (inactive)

CCCCN(CCCC)C(=O)C(=O)C(C(=O)C(=O)OC)c1nc2ccccc2o1 (stereo not drawn)
GI50 [1]: > 100 µM (inactive) | GI50 [2]: > 100 µM (inactive) | GI50 [3]: > 100 µM (inactive) | GI50 [4]: > 100 µM (inactive) | GI50 [5]: > 100 µM (inactive) | GI50 [6]: 34.8 µM (inactive) | GI50 [7]: > 100 µM (inactive) | GI50 [8]: 53.8 µM (inactive) | GI50 [9]: 54 µM (inactive) | GI50 [10]: > 100 µM (inactive) | GI50 [12]: > 100 µM (inactive) | GI50 [13]: 67.9 µM (inactive) | GI50 [14]: 44.5 µM | GI50 [15]: 69.3 µM (inactive) | GI50 [16]: > 100 µM (inactive) | GI50 [17]: 74.5 µM (inactive) | GI50 [18]: > 100 µM (inactive) | GI50 [19]: > 100 µM (inactive) | GI50 [20]: 50.8 µM (inactive) | GI50 [21]: 65.9 µM (inactive) | GI50 [23]: > 100 µM (inactive) | GI50 [24]: 44.8 µM (inactive) | GI50 [25]: > 100 µM (inactive) | GI50 [26]: > 100 µM (inactive) | GI50 [27]: > 100 µM (inactive) | GI50 [28]: 29 µM (inactive) | GI50 [29]: > 100 µM (inactive) | GI50 [30]: > 100 µM (inactive) | GI50 [31]: > 100 µM (inactive) | GI50 [32]: > 100 µM (inactive) | GI50 [33]: > 100 µM (inactive) | GI50 [34]: 78.5 µM (inactive) | GI50 [35]: > 100 µM (inactive) | GI50 [36]: > 100 µM (inactive) | GI50 [37]: > 100 µM (inactive) | GI50 [39]: 17.5 µM (inactive) | GI50 [40]: 79.3 µM (inactive) | GI50 [41]: > 100 µM (inactive) | GI50 [42]: > 100 µM (inactive) | GI50 [43]: > 100 µM (inactive) | GI50 [59]: > 100 µM (inactive) | GI50 [44]: > 100 µM (inactive) | GI50 [45]: 62.7 µM (inactive) | GI50 [46]: > 100 µM (inactive) | GI50 [47]: > 100 µM (inactive) | GI50 [48]: > 100 µM (inactive) | GI50 [49]: > 100 µM (inactive) | GI50 [50]: > 100 µM (inactive) | GI50 [51]: 48.8 µM (inactive) | GI50 [52]: 87.5 µM (inactive) | GI50 [53]: > 100 µM (inactive) | GI50 [54]: 90.6 µM (inactive) | GI50 [55]: > 100 µM (inactive) | GI50 [57]: > 100 µM (inactive) | GI50 [58]: 64.3 µM (inactive)

Source: ChEMBL document CHEMBL1201862, “PubChem BioAssay data set” (2004)
